Assay results taken from paper PMC10321576, “Cyclic peptides target the aromatic cage of a PHD-finger reader domain to modulate epigenetic protein function” (Chemical Science, 2023).
Read-outs that look alike come from different tables or passages of the source. Ends that are not written are not given here. Peptide text beside a SMILES is read from it.

Legend:
KDM7B PHD [1] = target: T1, KDM7B PHD (Homo sapiens, UniProt Q9UPP1); assay: AlphaScreen displacement of H3 1-21K4me3-Bt; assay type: binding; conditions: for reduced potency relative to OC9: affinity (BLI) and displacement (AS) assays, KDM7B PHD-finger
T1 construct: KDM7B 1-66; made in house
T1 sequence (Q9UPP1 1-66 isoform Q9UPP1-2): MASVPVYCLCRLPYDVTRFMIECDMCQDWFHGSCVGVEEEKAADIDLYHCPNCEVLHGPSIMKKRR
Excerpt: The functional effect of OC9 on the PHD-finger was further assessed using an AlphaScreen (AS) based proximity assay. […]

KDM7B PHD [2] = target: T1, KDM7B PHD; assay: BLI binding; parameters: key to BLI Screening, KDM7B PHD: (+) = binding; (-) = no binding; (NS) = non-specific; conditions: for BLI Screening, KDM7B PHD: qualitative assessment of binding by BLI
Excerpt: (§1) Figure S2. BLI for KDM7 proteins with cyclic peptides.
(§2) BLI traces for b inding to KDM7 protein domains immobilised by C-terminal His -tag on Ni -NTA
(§3) biosensors, against cyclic peptides. Response trace for each peptide concentration is represented by
(§4) a different colour, with the fitted curves overlaid in black.
(§5) concentration plotted, with 2-fold dilutions thereafter. Dual domain = PHD+JmjC. […]
(§6) against KDM7 and other protein domains. t1/2 = half life (0.693 / Koff)
(§7) (1 picture or pasted object on this page, not shown here)

KDM7B Dual (PHD+JmjC) = target: T2, KDM7B Dual (PHD+JmjC) (Homo sapiens, UniProt Q9UPP1); assay: BLI binding; parameters: key to BLI Screening, KDM7B Dual: (+) = binding; (-) = no binding; (NS) = non-specific; conditions: for BLI Screening, KDM7B Dual: qualitative assessment of binding by BLI; for koff / kon / Kd: 1:1 binding model; for Kd: His-tagged protein on Ni-NTA biosensors
T2 construct: Dual domain = PHD+JmjC; made in house
Excerpt: as §1, §2, §3, §4, §5, §6, §7

KDM7B JmjC = target: T3, KDM7B JmjC (Homo sapiens, UniProt Q9UPP1); assay: BLI binding; parameters: key to BLI Screening, KDM7B JmjC: (+) = binding; (-) = no binding; (NS) = non-specific; conditions: for Kd: read-out: BLI pKD, KDM7B JmjC (converted); for BLI Screening, KDM7B JmjC: qualitative assessment of binding by BLI
T3 construct: made in house
Excerpt: as §1, §2, §3, §4, §5, §6, §7

KDM7B dual domain = target: T4, KDM7B dual domain (Homo sapiens, UniProt Q9UPP1); assay: HDX-MS; assay type: binding; conditions: relative to DMSO
T4 construct: dual domain (PHD-JmjC) of KDM7B; His-tag (C); made in house
Excerpt: To further evaluate the interactions of OC9 with KDM7B we used hydrogen–deuterium exchange mass spectrometry (HDX-MS), which informs on protein dynamics by following deuterium incorporation into the protein amide backbone (Fig. 2).
The residue level view was generated by averaging mass changes across overlapping peptide fragments. Supporting data available in ESI. ^† K4me3 binding aromatic cage residues (‘YYMW’ Fig. 1a) are indicated by red asterix.

KDM7B Dual = target: T5, KDM7B Dual (Homo sapiens, UniProt Q9UPP1); assay: ITC binding
T5 construct: Dual = PHD+JmjC; made in house
Description: Figure S10. ITC results: Tabulated values from 1:1 binding model and conditions
ITC buffer = 50 mM HEPES, 100 mM NaCl, pH 7.4, 0.2 µm filtered), at 25 °C. Dual = PHD+JmjC. HisTrx
= His 6+thioredoxin tag, GST = glutathione S -transferase tag, ZB = Z -basic tag. Syringe contained
peptide solution in buffer. Cell contained protein solution in buffer.
as §7

KDM7A dual domain = KDM7A dual domain (Homo sapiens, UniProt Q6ZMT4); assay: MALDI-TOF-MS KDM7 activity assay (H3 peptide demethylation); assay type: biochemical
Description: Fig. 5 KDM7 PHD-finger inhibition by OC9 modulates dual domain JmjC activity. (a) (i–iii) OC9 inhibits demethylation of H3K9me2, with or without K4me3, by KDM7B (0.4 μM) on H3 peptide (2.5 μM). […] (b) (i–iii) OC9 enhances demethylation of H3K4me3K9me2 by KDM7A (0.55 μM) on H3 peptide (2.5 μM), and (iv) enhances KDM7A (0.5 μM) demethylation of calf histone extracts (50 μg). […] Inset MALDI-TOF-MS overlays are from respective highest OC9 concentration points compared to DMSO alone. KDM7 PHD-finger only proteins had no demethylase activity (Fig. S40 ^†). Calf histone H3K9me2 was quantitated relative to H4 band intensities at each time point, normalised to DMSO at t = 0. Full Western blots available in Fig. S42. ^† Relative rates (Krel min^−1) from a one-phase decay model, average from N = 3 independent experiments. […] The enzyme heading of the panel (KDM7B / KDM7A) was put in front of them. / DMSO is the vehicle control. Its printed rates (0.30 min^-1 in a, 0.04 min^-1 in b) are included because they are printed with its name.
In contrast to KDM7B, KDM7A lacks activity against H3K4me3K9me2, but demethylates H3_1–21K9me2.[57] OC9, however, restored the activity of KDM7A against H3_1–21K4me3K9me2 from <5% to a level (∼30%) that approached demethylation on H3_1–21K9me2 with DMSO alone (∼40%) (Fig. 5b and S39 ^†). […]

[3] = His-tagged protein on Ni-NTA biosensors, 1:1 binding model, read-out: BLI KD, KDM7B PHD

T2 sequence (Q9UPP1 37-483 limits assumed): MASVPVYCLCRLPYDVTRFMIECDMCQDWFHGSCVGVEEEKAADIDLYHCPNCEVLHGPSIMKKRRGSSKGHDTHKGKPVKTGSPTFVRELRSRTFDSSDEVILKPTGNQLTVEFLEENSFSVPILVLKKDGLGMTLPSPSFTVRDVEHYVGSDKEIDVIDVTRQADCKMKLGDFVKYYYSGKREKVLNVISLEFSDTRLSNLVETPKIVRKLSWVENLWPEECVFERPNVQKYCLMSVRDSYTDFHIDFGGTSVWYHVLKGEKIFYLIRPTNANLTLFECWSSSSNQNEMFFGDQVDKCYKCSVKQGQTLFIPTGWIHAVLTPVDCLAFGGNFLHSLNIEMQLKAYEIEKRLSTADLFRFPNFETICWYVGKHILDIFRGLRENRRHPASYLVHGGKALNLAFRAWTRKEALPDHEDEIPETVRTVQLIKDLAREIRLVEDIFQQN
T5 sequence (Q9UPP1 37-483 limits assumed): as above
T3 sequence (Q9UPP1 231-387 limits assumed): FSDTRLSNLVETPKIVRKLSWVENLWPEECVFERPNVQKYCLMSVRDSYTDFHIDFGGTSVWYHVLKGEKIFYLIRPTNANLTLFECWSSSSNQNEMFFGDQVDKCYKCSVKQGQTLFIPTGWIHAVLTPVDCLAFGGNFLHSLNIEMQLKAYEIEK
T4 sequence (Q9UPP1 37-483 limits assumed): as the sequence (Q9UPP1 37-483 limits assumed) above
KDM7A dual domain, sequence (Q6ZMT4 38-480 limits assumed): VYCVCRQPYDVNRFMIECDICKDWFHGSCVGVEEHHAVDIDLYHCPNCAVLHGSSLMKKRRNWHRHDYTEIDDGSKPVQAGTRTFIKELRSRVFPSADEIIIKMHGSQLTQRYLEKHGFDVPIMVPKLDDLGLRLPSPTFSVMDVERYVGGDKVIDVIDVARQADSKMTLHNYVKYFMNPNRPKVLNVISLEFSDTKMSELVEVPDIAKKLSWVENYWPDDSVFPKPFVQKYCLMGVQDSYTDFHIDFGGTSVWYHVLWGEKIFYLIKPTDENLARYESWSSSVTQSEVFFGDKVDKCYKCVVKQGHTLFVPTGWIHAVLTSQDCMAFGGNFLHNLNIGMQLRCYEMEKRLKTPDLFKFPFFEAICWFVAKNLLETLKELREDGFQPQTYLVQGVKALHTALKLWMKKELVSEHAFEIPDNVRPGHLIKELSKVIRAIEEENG

With `CC(C)C[C@@H]1NC(=O)[C@H](Cc2ccc(O)cc2)NC(=O)[C@H](Cc2ccc(O)cc2)NC(=O)CSC[C@@H](C(N)=O)NC(=O)[C@H]([C@@H](C)O)NC(=O)[C@H](CCCNC(=N)N)NC(=O)[C@H](Cc2ccccc2)NC(=O)[C@H](CCCCN)NC(=O)[C@H](CO)NC(=O)[C@@H]2CCCN2C(=O)[C@H](Cc2ccc(O)cc2)NC(=O)[C@@H]2CCCN2C(=O)[C@H](Cc2c[nH]cn2)NC(=O)[C@H]([C@@H](C)O)NC1=O` [V10K] (HELM PEPTIDE1{[O=C(C[*:3])[*:2]].Y.Y.L.T.H.P.Y.P.S.K.F.R.T.C.[am]}$PEPTIDE1,PEPTIDE1,1:R3-15:R3$$$V2.0; C-terminus assumed) the IC50 (KDM7B PHD [1]; read-out: IC50^AS, KDM7B PHD-finger) was > 10000 nM and the Kd (KDM7B PHD [2]; read-out: BLI KD, KDM7B PHD-finger) was > 10000 nM.
“Ac-YYLTHPYPSVFRTC-NH2 (N-terminus and C-terminus assumed) [Linear]” was tested, and the “reduced potency relative to OC9” value (KDM7B PHD [1]) was > 100 fold.
In the case of `CC(C)C[C@@H]1NC(=O)[C@H](Cc2ccc(O)cc2)NC(=O)[C@H](Cc2ccc(O)cc2)NC(=O)CSC[C@@H](C(N)=O)NC(=O)[C@H]([C@@H](C)O)NC(=O)[C@H](C)NC(=O)[C@H](Cc2ccccc2)NC(=O)[C@H](C(C)C)NC(=O)[C@H](CO)NC(=O)[C@@H]2CCCN2C(=O)[C@H](Cc2ccc(O)cc2)NC(=O)[C@@H]2CCCN2C(=O)[C@H](Cc2c[nH]cn2)NC(=O)[C@H]([C@@H](C)O)NC1=O` [R12A] (HELM PEPTIDE1{[O=C(C[*:3])[*:2]].Y.Y.L.T.H.P.Y.P.S.V.F.A.T.C.[am]}$PEPTIDE1,PEPTIDE1,1:R3-15:R3$$$V2.0; C-terminus assumed), the “reduced potency relative to OC9” value (KDM7B PHD [1]) is reported as “much weaker” and the “faster off-rate by BLI (vs OC9)” value (KDM7B PHD [2]) is reported as ~100 ×.
In the case of “YPYILYPSVYTTNC (also: sidechain bridge or staple (positions not given here)) [OC8]”, the “BLI Screening, KDM7B Dual” value (KDM7B Dual (PHD+JmjC)) is reported as “-”.
In the case of `CC[C@H](C)[C@@H]1NC(=O)[C@H](Cc2c[nH]c3ccccc23)NC(=O)[C@H](CO)NC(=O)[C@H](CC(C)C)NC(=O)[C@H](Cc2ccc(O)cc2)NC(=O)[C@H](Cc2ccc(O)cc2)NC(=O)[C@H]([C@@H](C)O)NC(=O)CNC(=O)[C@H](Cc2ccc(O)cc2)NC(=O)[C@H](C(C)C)NC(=O)[C@H](Cc2ccc(O)cc2)NC(=O)CSC[C@@H](C(N)=O)NC(=O)[C@@H]2CCCN2C1=O` [OC4] (HELM PEPTIDE1{[O=C(C[*:3])[*:2]].Y.V.Y.G.T.Y.Y.L.S.W.I.P.C.[am]}$PEPTIDE1,PEPTIDE1,1:R3-14:R3$$$V2.0), the koff (KDM7B Dual (PHD+JmjC)) is reported as 0.0124 ± 0.0001 s⁻¹, the kon (KDM7B Dual (PHD+JmjC)) is reported as 212000 ± 2000 M⁻¹ s⁻¹ and the Kd (KDM7B Dual (PHD+JmjC)) is reported as 58.6 nM. The “BLI Screening, KDM7B Dual” value (KDM7B Dual (PHD+JmjC)) was “+”, the Kd (KDM7B PHD [2]; [3]) was > 1000 nM and the “BLI Screening, KDM7B PHD” value (KDM7B PHD [2]) was “-”. For the same compound, the koff (KDM7B JmjC; 1:1 binding model) was 0.0245 ± 0.0001 s⁻¹, the kon (KDM7B JmjC; 1:1 binding model) was 249000 ± 3000 M⁻¹ s⁻¹ and the Kd (KDM7B JmjC; 1:1 binding model) was 100 nM. The “BLI Screening, KDM7B JmjC” value (KDM7B JmjC) was “+”.
For “YLVRIYPNKLIWWC (also: sidechain bridge or staple (positions not given here)) [OC6, enriched cyclic peptide, non-specific in BLI]”, the “BLI Screening, KDM7B Dual” value (KDM7B Dual (PHD+JmjC)) was “NS”, the “BLI Screening, KDM7B PHD” value (KDM7B PHD [2]) was “NS” and the “BLI Screening, KDM7B JmjC” value (KDM7B JmjC) was “NS”.
`CC[C@H](C)[C@@H]1NC(=O)[C@H](CC(C)C)NC(=O)[C@H](CCCNC(=N)N)NC(=O)[C@H](CCCNC(=N)N)NC(=O)[C@@H]2CCCN2C(=O)[C@H](Cc2ccc(O)cc2)NC(=O)[C@H](C(C)C)NC(=O)[C@H](CC(C)C)NC(=O)[C@H](CC(C)C)NC(=O)[C@H](C(C)C)NC(=O)[C@@H]2CCCN2C(=O)[C@H](Cc2ccc(O)cc2)NC(=O)CSC[C@@H](C(N)=O)NC1=O` [OC3] (HELM PEPTIDE1{[O=C(C[*:3])[*:2]].Y.P.V.L.L.V.Y.P.R.R.L.I.C.[am]}$PEPTIDE1,PEPTIDE1,1:R3-14:R3$$$V2.0) was tested, and the “HDX-MS effect on deuterium uptake, KDM7B dual domain” value (KDM7B dual domain) was “affected deuterium uptake in both domains”, the koff (KDM7B Dual (PHD+JmjC)) was 0.0148 ± 0.0001 s⁻¹ and the kon (KDM7B Dual (PHD+JmjC)) was 502000 ± 5000 M⁻¹ s⁻¹. The Kd (KDM7B Dual (PHD+JmjC)) was 29.5 nM, the “BLI Screening, KDM7B Dual” value (KDM7B Dual (PHD+JmjC)) was “+” and the Kd (KDM7B Dual; 50 mM HEPES, 100 mM NaCl, pH 7.4, 25 °C, 1:1 binding model) was 163 nM. The “ITC ΔH, KDM7B Dual” value (KDM7B Dual; 25 °C) was -16.3 ± 1.5 kJ mol -1, the “ITC N, KDM7B Dual” value (KDM7B Dual; stoichiometry) was 1.37 ± 0.05 and the Kd (KDM7B PHD [2]; [3]) was > 1000 nM. For the same compound, the “BLI Screening, KDM7B PHD” value (KDM7B PHD [2]) was “-”, the Kd (KDM7B JmjC; 1:1 binding model) was > 1000 nM and the “BLI Screening, KDM7B JmjC” value (KDM7B JmjC) was “-”.
For `CN(C)NC(=O)CCC(=O)O` [DAM, daminozide, reference compound], the IC50 (KDM7A dual domain) was 251 nM.
With `CC(C)C[C@@H]1NC(=O)[C@H](Cc2ccc(O)cc2)NC(=O)[C@H](Cc2ccc(O)cc2)NC(=O)CSC[C@@H](C(N)=O)NC(=O)[C@H]([C@@H](C)O)NC(=O)[C@H](CCCNC(=N)N)NC(=O)[C@H](Cc2ccccc2)NC(=O)[C@H](C(C)C)NC(=O)[C@H](C)NC(=O)[C@@H]2CCCN2C(=O)[C@H](Cc2ccc(O)cc2)NC(=O)[C@@H]2CCCN2C(=O)[C@H](Cc2c[nH]cn2)NC(=O)[C@H]([C@@H](C)O)NC1=O` [S9A] (HELM PEPTIDE1{[O=C(C[*:3])[*:2]].Y.Y.L.T.H.P.Y.P.A.V.F.R.T.C.[am]}$PEPTIDE1,PEPTIDE1,1:R3-15:R3$$$V2.0; C-terminus assumed) the “reduced potency relative to OC9” value (KDM7B PHD [1]) was “much weaker”.
In the case of “YIVPSPIWYHWVAC (also: sidechain bridge or staple (positions not given here)) [OC10]”, the “BLI Screening, KDM7B Dual” value (KDM7B Dual (PHD+JmjC)) is reported as “-”.
For `CC(C)C[C@@H]1NC(=O)[C@H](CO)NC(=O)[C@@H]2CCCN2C(=O)[C@H](Cc2ccc(O)cc2)NC(=O)[C@@H]2CCCN2C(=O)[C@H](Cc2c[nH]cn2)NC(=O)[C@H]([C@@H](C)O)NC(=O)[C@H](CC(C)C)NC(=O)[C@H](Cc2ccc(O)cc2)NC(=O)[C@H](Cc2ccc(O)cc2)NC(=O)CSC[C@@H](C(N)=O)NC(=O)[C@H]([C@@H](C)O)NC(=O)[C@H](CCCNC(=N)N)NC(=O)[C@H](Cc2ccccc2)NC1=O` [V10L] (HELM PEPTIDE1{[O=C(C[*:3])[*:2]].Y.Y.L.T.H.P.Y.P.S.L.F.R.T.C.[am]}$PEPTIDE1,PEPTIDE1,1:R3-15:R3$$$V2.0; C-terminus assumed), the “reduction in IC50^AS compared to OC9” value (KDM7B PHD [1]) was 10 fold, the “reduction in KD in BLI compared to OC9” value (KDM7B PHD [2]) was > 80 fold and the “reduction in t1/2 in BLI compared to OC9” value (KDM7B PHD [2]) was > 75 fold.
